Laboratory results reported in patent US10351559B2, “Maleate salts of a B-RAF kinase inhibitor, crystalline forms, methods of preparation, and uses therefore” (BeiGene, Ltd., priority 2015, dated 2019).
Structures can show the parent of a compound that is named as a salt.

Tests used:
[1] = test system: A431 epidermoid carcinoma (EGFR overexpression) xenografts; experiment: xenograft efficacy study; type: in vivo, BALB/C nude mice; details: A431 xenografts in nude mice, oral
Protocol: (§1) Human cancer cells were inoculated subcutaneously in the right axilla region of BALB/C nude mice to generate tumor xenografts. On the day of implantation, the cell culture medium was replaced with fresh medium. Three hours later, the media was removed and the cells were collected and re-suspended in cold (4° C.) PBS prior to inoculation. The right axilla region of each mouse was cleaned with 70% ethanol prior to cell inoculation. Each animal was injected subcutaneously with desired cells in 200 μl of cell suspension in the right front flank via a 26-gauge needle. After implantation tumor volumes were measured twice weekly in two dimensions using a calliper. Tumor volume was calculated using the formula: V=0.5×(a×b^2) where a and b are the long and short diameters of the tumor, respectively.
(§2) For in vivo efficacy studies, when the average tumor size reaches 100˜200 mm^3, animals were assigned into desired number of groups with 6-10 mice per group using a stratified randomization procedure. The groups consisted of a control group (no drug treatment), and different dose levels of Crystalline Form A* of Compound 1 Sesqui-Maleate treatment groups (ranged from 1-20 mg/kg). All doses were based on free-base weight. Drugs were administered by oral gavage once (qd) or twice (bid) daily; dosing frequency depended on the individual case for tumor growth. Treatments were administered by oral gavage (p.o.) in a volume of 10 ml/kg body weight. Body weight was assessed immediately before dosing and the volume dosed was adjusted accordingly. Individual body weights and tumor volumes were determined twice weekly, with mice being monitored daily for clinical signs of toxicity for the duration of the study. Mice were euthanized using carbon dioxide once their tumor volume reached 2000 mm^3, the tumor was ulcerated, or body weight loss exceeded 20%. All group data was analyzed using the t test. If the p value was <0.05, it was considered to be statistically significant.
(§3) Tumor growth inhibition (TGI) was calculated using the following formula: […]

[2] = test system: human A375 melanoma (B-RAF V600E mutation) xenografts; experiment: xenograft efficacy study; type: in vivo, BALB/C nude mice; details: A375 xenografts in nude mice, oral
Protocol: as §1, §2, §3

[3] = test system: LOX melanoma (B-RAF V600E mutation) xenografts; experiment: xenograft efficacy study; type: in vivo, BALB/C nude mice; details: LOX xenografts in nude mice, oral
Protocol: as §1, §2, §3

[4] = test system: HT29 colorectal carcinoma (B-RAF V600E mutation) xenografts; experiment: xenograft efficacy study; type: in vivo, BALB/C nude mice; details: HT29 xenografts in nude mice, oral
Protocol: as §1, §2, §3

[5] = test system: WiDr colorectal carcinoma (B-RAF V600E mutation) xenografts; experiment: xenograft efficacy study; type: in vivo, BALB/C nude mice; details: WiDr xenografts in nude mice, oral
Protocol: as §1, §2, §3

[6] = test system: HCC827 lung carcinoma (EGFR mutation) xenografts; experiment: xenograft efficacy study; type: in vivo, BALB/C nude mice; details: HCC827 xenografts in nude mice, oral
Protocol: as §1, §2, §3

[7] = test system: Colo205 colorectal carcinoma (B-RAF V600E mutation) xenografts; experiment: xenograft efficacy study; type: in vivo, BALB/C nude mice; details: Colo205 xenografts in nude mice, oral
Protocol: as §1, §2, §3

[8] = test system: p-ERK in Calu-6 K-RAS mutant non-small cell lung adenocarcinoma xenograft models; experiment: PD study, p-ERK in tumor tissue, combination; type: in vivo, mice; details: Calu-6 xenograft, with MEK inhibitor AZD6244
Protocol: as §1
For PD study, when the average tumor size reaches 140-900 mm^3, animals were assigned into desired number of groups with 4 mice per group using a stratified randomization procedure. The groups consisted of a control group (no drug treatment), and different dose levels of Crystalline Form A* of Compound 1 Sesqui-Maleate treatment groups (ranged from 1-20 mg/kg). All doses were based on free-base weight. Drugs were administered by oral gavage once (qd) or twice (bid) daily. […] Body weight was assessed immediately before dosing and the volume dosed was adjusted accordingly. […]

[9] = test system: EGFR phosphorylation in HCC827 cells; experiment: cellular phospho-EGFR TR-FRET assay; type: cell-based; details: Homo sapiens; EGFR mutant HCC827 lung cancer cells, 1 h treatment
Protocol: (§4) A375, Sk-Mel-28, HT29, Colo205, A431, and HCC827 cell lines were purchased from American Type Culture Collection. All the cell lines used in the cellular assays were cultured in the designated medium supplemented with 10% fetal bovine serum (FBS, Thermo Scientific), 100 units/mL penicillin (Gibco), 0.1 mg/mL streptomycin (Gibco) and in a humidified 37° C. environment with 5% CO2. Cell lines were reinstated from frozen stocks laid down within three passages from the original cells purchased and passaged no more than 30 times.
(§5) Cellular phospho-ERK and phospho-EGFR were measured using a TR-FRET-based method. Cells were seeded at 3×10^4 per well of a 96-well plate and left to attach for 16 hours. Growth medium was then replaced with 100 μL of medium containing no serum. Cells were then treated with a 10-point titration of compound. After 1 h of compound treatment, 50 μL of lysis buffer (Cisbio) were added to each well. Plates were then incubated at room temperature with shaking for 30 min. A total of 16 μL of cell lysate from each well of a 96-well plate was transferred to a 384-well small volume white plate. […] FRET signals were measured using a PHERAstar FS reader (BMG Labtech). IC50 values for ERK or EGFR phosphorylation was determined using GraphPad Prism software.

[10] = test system: EGFR phosphorylation in A431 cells; experiment: cellular phospho-EGFR TR-FRET assay; type: cell-based; details: Homo sapiens, A-431; EGFR overexpressing A431 cells, 1 h treatment
Protocol: as §4, §5

[11] = Raf kinase enzymatic assay (HTRF)
[12] = hygroscopicity (moisture sorption) by DVS; type: physicochemical; details: exposed to 95% RH, DVS
From the text: The free base of Compound 1 was obtained originally as an amorphous solid, which is slightly hygroscopic with 2.2% water gain from 0 to 80% RH. No form transformation was observed after dynamic vapor sorption (DVS).

With `O=C1CCc2c(Oc3ccc4c(c3)[C@@H]3[C@H](O4)[C@H]3c3nc4ccc(C(F)(F)F)cc4[nH]3)ccnc2N1` [5-(((1R,1aS,6bR)-1-(6-(trifluoromethyl)-1H-benzo[d]imidazol-2-yl)-1a,6b-dihydro-1H-cyclopropa[b]benzofuran-5-yl)oxy)-3,4-dihydro-1,8-naphthyridin-2(1H)-one sesqui-maleate salt] the antitumor activity [1] was “marked antitumor activity”, the antitumor activity [2] was “marked antitumor activity” and the antitumor activity [3] was “marked antitumor activity”. For the same compound, the antitumor activity [4] was “marked antitumor activity”, the antitumor activity [5] was “marked antitumor activity” and the antitumor activity [6] was “marked antitumor activity”. For the same compound, the antitumor activity [7] was “marked antitumor activity”, the “effect on inhibiting p-ERK in combination” value [8] was “strong synergistic effect” and the IC50 [9] was 161 nM. The IC50 [10] was 385 nM, the IC50 ([11]; BRAF V600E (416-766), ATP at KM) was 26 nM and the “enzyme inhibition” value ([11]; V600E mutant B-RAF) was “potent and reversible inhibitor”. For the same compound, the water uptake [12] was 0.1801%.
